Results taken from patent publication US10562909B2, “Fused quadracyclic compounds, compositions and uses thereof” (Tabomedex Biosciences, LLC, priority 2016, dated 2020).

Target: MAPKAPK2 (Homo sapiens, UniProt P49137)
Experiment: MK2 Enzymatic Assay
Assay type: biochemical
Details: 0.5 nM MAPKAPK2, 3 μM ATP, 2 μM Ser/Thr4 peptide, 23° C., values given as concentration bins
Experimental: Briefly, 5 μL of 2× (4 μM) 100% phosphorylation peptide was delivered into the control wells of a 384-well assay plate. 5 μL of 2× (1 nM) MAPKAPK2 and 2× peptide (4 μM) mixture in assay buffer was dispensed to remaining columns of assay plate using Eppendorf electronic multiple channel pipette. The assay plate was incubated for 20 minutes. 5 μL of 2× ATP (6 μM) in assay buffer was dispensed to each well and then the assay plate was lightly centrifuged. The assay plate was incubated for an additional 120 minutes.
5 μL of development reagent A was dispensed to all wells using Eppendorf electronic multiple channel pipette. After incubating the development reaction for 120 min, plates were read on a Perkin Elmer Envision instrument.
Percent phosphorylation was calculated using the following formula:
[formula] Where • C100%=Average Coumarin emission signal of the 100% Phos. Control • C0%=Average Coumarin emission signal of the 0% Phos. Control • F100%=Average Fluorescein emission signal of the 100% Phos. Control • F0%=Average Flurescein emission signal of the 0% Phos. Control

Chain of MAPKAPK2 (P49137 whole entry, species assumed): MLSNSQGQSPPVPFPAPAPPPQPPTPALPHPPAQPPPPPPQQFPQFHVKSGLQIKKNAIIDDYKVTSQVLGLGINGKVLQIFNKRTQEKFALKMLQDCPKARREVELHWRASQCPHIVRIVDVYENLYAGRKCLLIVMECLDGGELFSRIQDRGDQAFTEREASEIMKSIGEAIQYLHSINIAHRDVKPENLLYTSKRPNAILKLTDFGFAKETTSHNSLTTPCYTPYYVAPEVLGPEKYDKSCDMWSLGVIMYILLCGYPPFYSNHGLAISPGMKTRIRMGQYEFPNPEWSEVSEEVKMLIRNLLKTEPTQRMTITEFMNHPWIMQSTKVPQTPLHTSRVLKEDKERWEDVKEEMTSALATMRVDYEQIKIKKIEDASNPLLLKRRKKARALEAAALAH

Row | SMILES | IC50
1 | CN(C)[C@@H]1CN(c2ccc3c(c2)Cn2cc(-c4ccc(C#N)cc4)cc2-c2nncn2-3)C[C@H]1O (racemic) [Compound 57, 4-(7-(trans-3-(dimethylamino)-4-hydroxypyrrolidin-1-yl)-9H-benzo[e]pyrrolo[1,2-a][1,2,4]triazolo[3,4-c][1,4]diazepin-12-yl)benzonitrile] | < 0.05 µM
2 | CNC[C@H]1CN(c2ccc3c(c2)Cn2cc(-c4ccc(C#N)cc4)cc2-c2nncn2-3)C[C@H]1O (racemic) [Compound 73, 4-(7-(cis-3-hydroxy-4-((methylamino)methyl)pyrrolidin-1-yl)-9H-benzo[e]pyrrolo[1,2-a] [1,2,4]triazolo[3,4-c][1,4]diazepin-12-yl)benzonitrile] | < 0.05 µM
3 | CN(C)C[C@H]1CN(c2ccc3c(c2)Cn2cc(-c4ccc(C#N)cc4)cc2-c2nncn2-3)C[C@@H]1O (racemic) [Compound 74, 4-(7-(trans-3-((dimethylamino)methyl)-4-hydroxypyrrolidin-1-yl)-9H-benzo[e]pyrrolo[1,2-a][1,2,4]triazolo[3,4-c][1,4]diazepin-12-yl)benzonitrile] | < 0.05 µM
4 | N#Cc1ccc(-c2cc3n(c2)Cc2cc(N4C[C@@H](F)[C@@H](N)C4)ccc2-n2cnnc2-3)cc1 (racemic) [Compound 76, 4-(7-(cis-3-amino-4-fluoropyrrolidin-1-yl)-9H-benzo[e]pyrrolo[1,2-a][1,2,4]triazolo[3,4-c][1,4]diazepin-12-yl)benzonitrile] | < 0.05 µM
5 | N#Cc1ccc(-c2cc3n(c2)Cc2cc(N4CC[C@H]5NCC[C@@H]54)ccc2-n2nnnc2-3)cc1 (racemic) [Compound 232, 4-(7-(trans-hexahydropyrrolo[3,2-b]pyrrol-1(2H)-yl)-9H-benzo[e]pyrrolo[1,2-a]tetrazolo[5,1-c][1,4]diazepin-12-yl)benzonitrile] | < 0.05 µM
6 | N#Cc1ccc(-c2cc3n(c2)Cc2cc(N4CC[C@H]5NCC[C@@H]54)ccc2-n2ncnc2-3)cc1 (racemic) [Compound 249, 4-(7-(trans-hexahydropyrrolo[3,2-b]pyrrol-1(2H)-yl)-9H-benzo[e]pyrrolo[1,2-a][1,2,4]triazolo[5,1-c][1,4]diazepin-12-yl)benzonitrile] | < 0.05 µM
7 | N#Cc1ccc(-c2cc3n(c2)Cc2cc(N4CC[C@H]5NCC[C@@H]54)ncc2-n2cnnc2-3)cc1 (racemic) [Compound 314, 4-(7-(trans-hexahydropyrrolo[3,2-b]pyrrol-1(2H)-yl)-9H-pyrido[3,4-e]pyrrolo[1,2-a][1,2,4]triazolo[3,4-c][1,4]diazepin-12-yl)benzonitrile] | < 0.05 µM
8 | CNC[C@H]1CN(c2ccc3c(c2)Cn2cc(-c4ccc(C#N)cc4)cc2-c2nncn2-3)C[C@@H]1O (relative stereo) [Compound 72, 4-(7-(trans-3-hydroxy-4-((methylamino)methyl)pyrrolidin-1-yl)-9H-benzo[e]pyrrolo[1,2-a][1,2,4]triazolo[3,4-c][1,4]diazepin-12-yl)benzonitrile] | < 0.05 µM
9 | CN(C)C[C@H]1CN(c2ccc3c(c2)Cn2cc(-c4ccc(C#N)cc4)cc2-c2nncn2-3)C[C@H]1O (relative stereo) [Compound 75, 4-(7-(Cis-3-((dimethylamino)methyl)-4-hydroxypyrrolidin-1-yl)-9H-benzo[e]pyrrolo[1,2-a] [1,2,4]triazolo[3,4-c][1,4]diazepin-12-yl)benzonitrile] | < 0.05 µM
10 | CNC[C@H]1CN(c2ccc3c(c2)Cn2cc(-c4ccc(F)cc4)cc2-c2ncnn2-3)C[C@H]1F (relative stereo) [Compound 501, 1-(cis-4-fluoro-1-(12-(4-fluorophenyl)-9H-benzo[e]pyrrolo[1,2-a][1,2,4]triazolo[5,1-c][1,4]diazepin-7-yl)pyrrolidin-3-yl)-N-methylmethanamine] | < 0.05 µM
11 | CN(C)C[C@H]1CN(c2ccc3c(c2)Cn2cc(-c4ccc(F)cc4)cc2-c2ncnn2-3)C[C@H]1F (relative stereo) [Compound 502, 1-(cis-4-fluoro-1-(12-(4-fluorophenyl)-9H-benzo[e]pyrrolo[1,2-a][1,2,4]triazolo[5,1-c][1,4]diazepin-7-yl)pyrrolidin-3-yl)-N,N-dimethylmethanamine] | < 0.05 µM
12 | N[C@@H]1CN(c2ccc3c(c2)Cn2cc(-c4ccc(F)cc4)cc2-c2ncnn2-3)C[C@H]1CO (relative stereo) [Compound 503, (Trans-4-amino-1-(12-(4-fluorophenyl)-9H-benzo[e]pyrrolo[1,2-a][1,2,4]triazolo[5,1-c][1,4]diazepin-7-yl)pyrrolidin-3-yl)methanol] | 0.1 to 0.2 µM
13 | CN(C)[C@@H]1CN(c2ccc3c(c2)Cn2cc(-c4ccc(F)cc4)cc2-c2ncnn2-3)C[C@H]1CO (relative stereo) [Compound 504, (Trans-4-(dimethylamino)-1-(12-(4-fluorophenyl)-9H-benzo[e]pyrrolo[1,2-a][1,2,4]triazolo[5,1-c][1,4]diazepin-7-yl)pyrrolidin-3-yl)methanol] | 0.1 to 0.2 µM
14 | N#Cc1ccc(-c2cc3n(c2)Cc2cc(N4CCNCC4)ccc2-n2cnnc2-3)cc1 [Compound 1, 4-(7-(piperazin-1-yl)-9H-benzo[e]pyrrolo[1,2-a][1,2,4]triazolo[3,4-c][1,4]diazepin-12-yl)benzonitrile] | 0.1 to 0.2 µM
15 | CNCC1CN(c2ccc3c(c2)Cn2cc(-c4ccc(C#N)cc4)cc2-c2nncn2-3)C1 [Compound 11, 4-(7-(3-((methylamino)methyl)azetidin-1-yl)-9H-benzo[e]pyrrolo[1,2-a][1,2,4]triazolo[3,4-c][1,4]diazepin-12-yl)benzonitrile] | 0.05 to 0.1 µM
16 | CN(C)[C@H]1CN(c2ccc3c(c2)Cn2cc(-c4ccc(C#N)cc4)cc2-c2nncn2-3)C[C@@H]1O [Compound 58, 4-(7-((3S,4S)-3-(dimethylamino)-4-hydroxypyrrolidin-1-yl)-9H-benzo[e]pyrrolo[1,2-a][1,2,4]triazolo[3,4-c][1,4]diazepin-12-yl)benzonitrile] | 0.05 to 0.1 µM

Continued, values first:

Row | IC50 | SMILES
17 | < 0.05 µM | O[C@@H]1CN(c2ccc3c(c2)Cn2cc(-c4ccc(F)cc4)cc2-c2nccn2-3)C[C@H]1CN1CCCC1 (relative stereo) [Compound 472, (Trans)-1-(12-(4-fluorophenyl)-9H-benzo[e]imidazo[2,1-c]pyrrolo[1,2-a][1,4]diazepin-7-yl)-4-(pyrrolidin-1-ylmethyl)pyrrolidin-3-ol]
18 | < 0.05 µM | N[C@H]1CN(c2ccc3c(c2)Cn2cc(-c4ccc(F)cc4)cc2-c2nccn2-3)C[C@@H]1CO (relative stereo) [Compound 489, ((trans)-4-amino-1-(12-(4-fluorophenyl)-9H-benzo[e]imidazo[2,1-c]pyrrolo[1,2-a][1,4]diazepin-7-yl)pyrrolidin-3-yl)methanol]
19 | < 0.05 µM | CN(C)[C@@H]1CN(c2ccc3c(c2)Cn2cc(-c4ccc(F)cc4)cc2-c2nccn2-3)C[C@H]1CO (relative stereo) [Compound 490, ((Trans)-4-(dimethylamino)-1-(12-(4-fluorophenyl)-9H-benzo[e]imidazo[2,1-c]pyrrolo[1,2-a][1,4]diazepin-7-yl)pyrrolidin-3-yl)methanol]
20 | < 0.05 µM | CN[C@@H]1CN(c2ccc3c(c2)Cn2cc(-c4ccc(F)cc4)cc2-c2nccn2-3)C[C@H]1CO (relative stereo) [Compound 491, ((Trans)-1-(12-(4-fluorophenyl)-9H-benzo[e]imidazo[2,1-c]pyrrolo[1,2-a][1,4]diazepin-7-yl)-4-(methylamino)pyrrolidin-3-yl)methanol]
21 | < 0.05 µM | NCC[C@H]1CN(c2ccc3c(c2)Cn2cc(-c4ccc(F)cc4)cc2-c2nccn2-3)C[C@@H]1O (relative stereo) [Compound 492, Trans-4-(2-aminoethyl)-1-(12-(4-fluorophenyl)-9H-benzo[e]imidazo[2,1-c]pyrrolo[1,2-a][1,4]diazepin-7-yl)pyrrolidin-3-ol]
22 | < 0.05 µM | CNCC[C@H]1CN(c2ccc3c(c2)Cn2cc(-c4ccc(F)cc4)cc2-c2nccn2-3)C[C@@H]1O (relative stereo) [Compound 493, Trans-1-(12-(4-fluorophenyl)-9H-benzo[e]imidazo[2,1-c]pyrrolo[1,2-a][1,4]diazepin-7-yl)-4-(2-(methylamino)ethyl)pyrrolidin-3-ol]
23 | < 0.05 µM | CN(C)CC[C@H]1CN(c2ccc3c(c2)Cn2cc(-c4ccc(F)cc4)cc2-c2nccn2-3)C[C@@H]1O (relative stereo) [Compound 494, Trans-4-(2-(dimethylamino)ethyl)-1-(12-(4-fluorophenyl)-9H-benzo[e]imidazo[2,1-c]pyrrolo[1,2-a][1,4]diazepin-7-yl)pyrrolidin-3-ol]
24 | 0.1 to 0.2 µM | OC[C@@H]1CNC[C@H]1Nc1ccc2c(c1)Cn1cc(-c3ccc(F)cc3)cc1-c1nccn1-2 (relative stereo) [Compound 495, (Trans-4-((12-(4-fluorophenyl)-9H-benzo[e]imidazo[2,1-c]pyrrolo[1,2-a][1,4]diazepin-7-yl)amino)pyrrolidin-3-yl)methanol]
25 | 0.05 to 0.1 µM | CN[C@@H]1CN(c2ccc3c(c2)Cn2cc(-c4ccc(F)cc4)cc2-c2ncnn2-3)C[C@H]1CO (relative stereo) [Compound 505, (Trans-1-(12-(4-fluorophenyl)-9H-benzo[e]pyrrolo[1,2-a][1,2,4]triazolo[5,1-c][1,4]diazepin-7-yl)-4-(methylamino)pyrrolidin-3-yl)methanol]
26 | < 0.05 µM | OC1CN(c2ccc3c(c2)Cn2cc(-c4ccc(F)cc4)cc2-c2nccn2-3)CC1CN1CCC1 (single isomer, unassigned) [Compound 468]
27 | < 0.05 µM | OC1CN(c2ccc3c(c2)Cn2cc(-c4ccc(F)cc4)cc2-c2nccn2-3)CC1CN1CCC1 (single isomer, unassigned) [Compound 469]
